Data as given in patent publication US10556907B2 (AbbVie Inc., priority 2015, dated 2020).
pEC50: −log10 of the molar value.

Key:
[1] = system: monocytes; details: cited from earlier work
[2] = in vivo; cited from earlier work
[3] = in vivo; cited from earlier work; remark: listed apart in the source
[4] = biological target: T1, human S1PR4 receptor (Homo sapiens, UniProt O95977); assay: Method 1: intracellular Ca2+ release (FLIPR, Calcium 5) in recombinant CHO-K1 cells; assay type: cell-based; details: (1): determined with method 1; read-out: S1P4 EC50
T1 construct: host or cells: CHO-K1
T1 sequence (O95977 1-384): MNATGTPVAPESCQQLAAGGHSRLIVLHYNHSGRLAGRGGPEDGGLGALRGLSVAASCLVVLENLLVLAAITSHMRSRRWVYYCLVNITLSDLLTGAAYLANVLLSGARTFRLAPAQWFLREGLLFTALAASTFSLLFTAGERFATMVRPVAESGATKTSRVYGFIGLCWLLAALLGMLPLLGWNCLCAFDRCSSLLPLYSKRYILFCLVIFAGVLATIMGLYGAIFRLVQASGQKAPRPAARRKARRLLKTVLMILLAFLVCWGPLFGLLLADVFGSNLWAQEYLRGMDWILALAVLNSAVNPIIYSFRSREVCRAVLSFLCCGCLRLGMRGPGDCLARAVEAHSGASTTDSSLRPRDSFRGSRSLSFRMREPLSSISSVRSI
Procedure, shortened: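 Cells expressing the receptor with promiscuous Gq/i5 are dye-loaded, equilibrated at room temperature and challenged with test compound while fluorescence is recorded by FLIPR. Potency is derived by nonlinear fitting after normalization to phospho-fingolimod.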

[5] = biological target: T2, human EDG8 (S1PR5) receptor (Homo sapiens, UniProt Q9H228); assay: Method 2: Aequorin assay, cell clone CHO-A21-EDG8 #12; assay type: cell-based; details: agonist potency, determined with method 2 (symbols E-G); read-out: S1P5 EC50 range
T2 construct: expressed in transfected cells; host or cells: CHO (clone CHO-A21-EDG8 #12)
T2 sequence (Q9H228 whole entry): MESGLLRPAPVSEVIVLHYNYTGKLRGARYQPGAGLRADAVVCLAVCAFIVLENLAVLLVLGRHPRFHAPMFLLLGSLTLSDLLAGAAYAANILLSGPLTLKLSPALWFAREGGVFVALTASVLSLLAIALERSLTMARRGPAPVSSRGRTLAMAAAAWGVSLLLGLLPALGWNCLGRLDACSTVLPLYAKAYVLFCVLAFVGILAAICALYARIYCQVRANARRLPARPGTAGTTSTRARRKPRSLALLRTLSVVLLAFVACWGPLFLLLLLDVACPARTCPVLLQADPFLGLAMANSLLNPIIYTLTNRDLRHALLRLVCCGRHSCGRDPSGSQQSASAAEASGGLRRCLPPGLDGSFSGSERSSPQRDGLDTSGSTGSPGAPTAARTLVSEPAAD
Description: (§1) Agonistic activity was measured using two different methods, described below.
(§2) Genetically Engineered Cells
(§3) Cell clone CHO-A21-Edg1 #17 carries the transgenes human EDG1 (S1PR1) receptor (Accession number NP_001391.2), mitochondrially targeted Aequorin (active part corresponds to accession number 1SL8_A) and chimaeric Gaqi5=Gaq modified with the 5 C-terminal amino-acids replaced with those of the Gai protein (DCGLF). CHO-A2-S1P3 Mix is a cell pool ectopically expressing human EDG3 (S1PR3) receptor (Accession number NP_005217.2) mitochondrially targeted Aequorin (active part has a sequence similar to accession number AY601106.1) and GNA16 (Accession number NP_002059.3). Cell clone CHO-A21-EDG8 #12 carries the transgenes human EDG8 (S1PR5) receptor (Accession number NP_110387.1), mitochondrially expressed Aequorin (active part corresponds to accession number 1SL8_A) and chimaeric Gaqi5 (Gaq modified to present the 5 last amino-acids of the Gai protein “DCGLF”; see above). Cells are grown to mid-log phase in culture medium (HAM's F12, 10% FBS, 100 IU/mL penicillin, 100 μg/mL streptomycin, 250 μg/mL Zeocin, 400 μg/mL G418). 18 hours prior to frozen cells preparation, the medium is changed to remove the antibiotics.
(§4) 18 hours prior to the test, vials of frozen cells are quickly thawed in a 37° C. water bath, cells are recovered by centrifugation and resuspended in assay buffer (DMEM/HAM's F12 with HEPES, without phenol red+0.1% fatty acid-free BSA). Cells are gently agitated in suspension overnight at RT in presence of 5 μM of Coelenterazine h (Molecular Probes). On the day of the test, cells are diluted to their final working concentrations in assay buffer and agitated in suspension for 1 h at RT. Cells are then placed in the luminescence reader (Hamamatsu Functional Drug Screening System 6000, FDSS6000). During cells incubation, compounds are prepared in 100% DMSO, and subsequently diluted in assay buffer. Compounds are then dispensed in the assay plate (black, clear-bottom, 384-well plate). After binding of agonists to the human S1P receptor the intracellular calcium concentration increases and binding of calcium to the Aequorin/Coelenterazine complex leads to an oxidation reaction of coelenterazine, which results in the production of […], coelenteramide, CO2 and light (Dmax 469 nm). The luminescent response is dependent on the agonist concentration. For agonist testing, 30 μL of cell suspension are injected on 30 μL of test compound or reference agonist in the assay plate. The resulting emission of light is recorded for 90 seconds using the FDSS6000. Dose response curves with the reference compounds are performed before testing the compounds. S1P is the reference agonist and JTE-013 the reference antagonist for S1P2. […]
(§5) Luminescence data are integrated over the reading interval for agonist and antagonist modes. To standardize the emission of recorded light (determination of the “100% signal”) across plates and across different experiments, some of the wells contain 100 μM digitonin or a saturating concentration of ATP (20 μM). Plates also contain the reference agonist at a concentration equivalent to the EC80 obtained during the test validation and the EC100. Dose-response data from test compounds were analyzed with XLfit (IDBS) software using nonlinear regression applied to a sigmoidal dose-response model and the following equation: • XL Fit fit Model 203: 4 Parameter Logistic Model • A: Bottom • B: TOP • C: LogEC50 • D: Hill fit=(A+((B−A)/(1+(((10^C)/x)^D)))) inv=((10^C)/((((B−A)/(y−A))−1)^(1/D))) res=(y−fit)

[6] = biological target: T3, human EDG1 (S1PR1) receptor (Homo sapiens, UniProt P21453); assay: Method 2: Aequorin assay, cell clone CHO-A21-Edg1 #17; assay type: cell-based; details: (2): determined with method 2; read-out: S1P1 EC50
T3 construct: expressed in transfected cells; host or cells: CHO (clone CHO-A21-Edg1 #17)
T3 sequence (P21453 whole entry): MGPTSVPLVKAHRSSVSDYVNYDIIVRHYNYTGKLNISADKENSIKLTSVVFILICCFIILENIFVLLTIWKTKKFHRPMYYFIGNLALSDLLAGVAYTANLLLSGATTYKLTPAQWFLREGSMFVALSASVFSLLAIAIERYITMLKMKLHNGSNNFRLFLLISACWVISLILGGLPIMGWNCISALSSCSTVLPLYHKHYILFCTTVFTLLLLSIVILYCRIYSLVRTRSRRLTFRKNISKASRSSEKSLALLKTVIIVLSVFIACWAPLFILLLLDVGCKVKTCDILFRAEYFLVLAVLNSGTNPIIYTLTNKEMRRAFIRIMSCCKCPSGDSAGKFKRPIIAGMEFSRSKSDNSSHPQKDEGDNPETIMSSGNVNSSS
Description: as §1, §2, §3, §4, §5

[7] = biological target: T4, human EDG3 (S1PR3) receptor (Homo sapiens, UniProt Q99500); assay: Method 2: Aequorin assay, cell pool CHO-A2-S1P3 Mix; assay type: cell-based; details: (2): determined with method 2
T4 construct: expressed in transfected cells; host or cells: CHO (cell pool CHO-A2-S1P3 Mix)
T4 sequence (Q99500 whole entry): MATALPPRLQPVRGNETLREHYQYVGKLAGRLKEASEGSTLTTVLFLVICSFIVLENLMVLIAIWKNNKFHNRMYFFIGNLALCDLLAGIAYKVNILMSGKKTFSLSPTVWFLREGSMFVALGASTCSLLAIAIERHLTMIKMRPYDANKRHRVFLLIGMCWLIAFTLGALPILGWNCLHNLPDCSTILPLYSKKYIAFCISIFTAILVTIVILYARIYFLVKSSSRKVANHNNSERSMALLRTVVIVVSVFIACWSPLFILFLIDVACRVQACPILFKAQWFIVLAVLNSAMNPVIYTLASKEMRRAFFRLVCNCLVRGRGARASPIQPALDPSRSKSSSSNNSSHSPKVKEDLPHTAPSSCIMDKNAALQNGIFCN
Description: as §1, §2, §3, §4, §5

SMILES	Aβ-induced migration of monocytes to sites of injury [1]	Aβ-induced memory deficits [2]	nociceptive behavior in neuropathic pain models [3]	pEC50 [4]	pEC50 [5]	pEC50 [6]	pEC50 [7]
CCCCCCCCc1ccc(CCC(N)(CO)CO)cc1 [FTY720/FIngolimod]	inhibits such migration	able to modulate Aβ-induced memory deficits	able to reduce nociceptive behavior	–	–	–	–
FC(F)(F)c1cccc(-c2noc(-c3cc(-c4ccccc4)c(C(F)(F)F)s3)n2)c1 [SEW2817]	–	–	fails to have an effect	–	–	–	–
O=C(O)C1CC(N2CCc3nc(-c4ccc(OCc5cccc(F)c5)cc4)ncc3C2)C1 (centres unmarked) [Compound 52, 3-(2-(4-((3-fluorobenzyl)oxy)phenyl)-7,8-dihydropyrido[4,3-d]pyrimidin-6(5H)-yl)cyclobutanecarboxylic acid]	–	–	–	< 6.00	5.00 to 6.00	< 6.00	< 6.00
CC(CN1CCc2nc(-c3ccc(OCc4ccccc4)cc3)ccc2C1)C(=O)O (centres unmarked) [Compound 101, 3-(2-(4-(benzyloxy)phenyl)-7,8-dihydro-1,6-naphthyridin-6(5H)-yl)-2-methylpropanoic acid]	–	–	–	–	6.00 to 7.00	< 6.00	< 6.00
CC(CN1CCc2nc(-c3ccc(OCc4ccccc4)cc3)ncc2C1)C(=O)O (centres unmarked) [Compound 6, 3-(2-(4-(benzyloxy)phenyl)-7,8-dihydropyrido[4,3-d]pyrimidin-6(5H)-yl)-2-methylpropanoic acid]	–	–	–	–	6.00 to 7.00	< 6.00	< 6.00
O=C(O)CCN1CCc2nc(-c3ccc(OCc4ccccc4)cc3F)ccc2C1 [Compound 134, 3-(2-(4-(benzyloxy)-2-fluorophenyl)-7,8-dihydro-1,6-naphthyridin-6(5H)-yl)propanoic acid]	–	–	–	–	> 7.00	< 6.00	< 6.00
CC(CN1CCc2nc(-c3ccc(OCc4cc(F)cc(F)c4)cc3)ncc2C1)C(=O)O (centres unmarked) [Compound 9, 3-(2-(4-((3,5-difluorobenzyl)oxy)phenyl)-7,8-dihydropyrido[4,3-d]pyrimidin-6(5H)-yl)-2-methylpropanoic acid]	–	–	–	–	6.00 to 7.00	< 6.00	< 6.00
O=C(O)CCN1CCc2nc(-c3ccc(OCc4ccccc4F)cc3)ccc2C1 [Compound 132, 3-(2-(4-((2-fluorobenzyl)oxy)phenyl)-7,8-dihydro-1,6-naphthyridin-6(5H)-yl)propanoic acid]	–	–	–	–	> 7.00	< 6.00	< 6.00
CC(CN1CCc2nc(-c3ccc(OCc4c(Cl)cccc4Cl)cc3)ncc2C1)C(=O)O (centres unmarked) [Compound 7, 3-(2-(4-(2,6-dichlorobenzyloxy)phenyl)-7,8-dihydropyrido[4,3-d]pyrimidin-6(5H)-yl)-2-methylpropanoic acid]	–	–	–	–	6.00 to 7.00	< 6.00	< 6.00
CC(CC(=O)O)N1Cc2ccc(-c3ccc(OCc4ccccc4)cc3)nc2C1 (centres unmarked) [Compound 200, 3-(2-(4-(benzyloxy)phenyl)-5H-pyrrolo[3,4-b]pyridin-6(7H)-yl)butanoic acid]	–	–	–	–	5.00 to 6.00	< 6.00	< 6.00
Cc1cc(-c2ccc3c(n2)CCN(CCC(=O)O)C3)ccc1OCc1ccccc1 [Compound 139, 3-(2-(4-(benzyloxy)-3-methylphenyl)-7,8-dihydro-1,6-naphthyridin-6(5H)-yl)propanoic acid]	–	–	–	–	6.00 to 7.00	< 6.00	< 6.00
O=C(O)CCN1CCc2nc(-c3ccc(OCc4ccccc4)c(Cl)c3)ccc2C1 [Compound 144, 3-(2-(4-(benzyloxy)-3-chlorophenyl)-7,8-dihydro-1,6-naphthyridin-6(5H)-yl)propanoic acid]	–	–	–	–	6.00 to 7.00	< 6.00	< 6.00
